Columns and labels:
[1] = tested on: adhesion of polymorphonuclear cells to HUVEC cells; assay: Adhesion assay, PMN to HUVEC, IL-1β stimulus; assay type: cell-based; details: Homo sapiens, 4 h, read-out: inhibition of the adhesion
Method: (§1) Human umbilical vein endothelial cells (HUVEC cells) were suitably treated, grown to confluence in 24 well plates, washed and maintained for one day in M199 medium supplemented with 10% BCS (Bovine Calf Serum).
(§2) Polymorphonuclear cells (PMN) were prepared from citrated venous blood obtained from healthy volunteers. Polymorphonuclear cells (PMN), at the concentration of 10^7 cells/ml were labeled with fluorescein diacetate (5 μg/ml) for 30 minutes at 37° C., washed with BSS and plated at the concentration of 10^6 cells per well in a final volume of 0.25 ml of BSS.
(§3) The antiadhesive effects of cholesteryl butyrate nanoparticles prepared in example 1 and of sodium butyrate were measured by an adhesion assay. In detail, human polymorphonuclear cells and HUVEC endothelial cells were incubated with increasing concentrations of cholesteryl butyrate or sodium butyrate nanoparticles in presence of a substance, PAF or IL-1β, which induces adhesion of PMN cells to endothelial HUVEC cells. Adhesion was then assessed by fluorescence microimaging.
b) The effect of cholesteryl butyrate nanoparticles prepared in example 1 or of sodium butyrate on adhesion of polymorphonuclear cells to HUVEC cells was also examined in presence of the adhesion stimulus provided by IL-1β (0.05 ng/ml). […]

[2] = tested on: adhesion of polymorphonuclear cells to HUVEC cells; assay: Adhesion assay, PMN to HUVEC, PAF stimulus; assay type: cell-based; details: Homo sapiens, 5 min
Method: as §1, §2, §3
a) The effect of cholesteryl butyrate nanoparticles prepared as in example 1, or of sodium butyrate, on adhesion of polymorphonuclear cells to HUVEC cells was examined in presence of the adhesion stimulus provided by PAF (10^−7M). […]

Q: How did the inhibition at 10 µM [1] turn out when `CCCC(=O)[O-].[Na+]` [sodium butyrate] was run?
A: The inhibition at 10 µM was 22%.

Q: What about the IC50 ([2]; read-out: IC50 (inhibition of adhesion)) of the same compound?
A: The IC50 was 400 nM.

Q: And the inhibition at 10 µM ([2]; read-out: inhibition of the adhesion)?
A: Its inhibition at 10 µM is 74%.

From patent publication US20090306032A1, “Use of solid lipid nanoparticles Comprising Cholesteryl Propionate and/or Cholesteryl Butyrate” (priority 2005, published 2009)
